According to ChEMBL document CHEMBL3886340, “2-substituted-3-phenylpropionic acid derivatives and their use in the treatment of inflammatory bowel disease” (2015):

How the values were obtained:
[1] = target: T1, Peroxisome proliferator-activated receptor gamma (Homo sapiens, UniProt P37231); assay: (§1) Reporter Gene Assay: Transactivation Assay Expression vectors were prepared by inserting the ligand binding domain cDNA (complementary DNA) of human PPARalpha (amino acid 168-468) and human PPARgamma (amino acid 205-505), 3′ to and in frame with, the yeast GAL4 transcription factor DNA binding domain and the nuclear localization signal from the T-antigen of Polyoma Virus into the mammalian expression vector pSGS (Stratagene). The resulting expression vectors pSGGAL-PPARalpha and pSGGAL-PPARgamma were used in co-transfection experiments together with a modified pGL3 promoter plasmid (Promega) containing five copies of the UAS GAL4 recognition site. 2.5 μg pSGGAL-PPARalpha or pSGGAL-PPARgamma were mixed with 25 μg pGL3p […] and 22.5 μg pBluescript (Stratagene) in 0.95 mL ice cold PBS containing between 9-12 million U-2 OS (human osteosarcoma) cells. The cell/DNA mixture was incubated on ice for 5 minutes and then divided between two 0.4 cm cuvettes and electroporated at 960 μF, 2
T1 sequence (P37231 whole entry): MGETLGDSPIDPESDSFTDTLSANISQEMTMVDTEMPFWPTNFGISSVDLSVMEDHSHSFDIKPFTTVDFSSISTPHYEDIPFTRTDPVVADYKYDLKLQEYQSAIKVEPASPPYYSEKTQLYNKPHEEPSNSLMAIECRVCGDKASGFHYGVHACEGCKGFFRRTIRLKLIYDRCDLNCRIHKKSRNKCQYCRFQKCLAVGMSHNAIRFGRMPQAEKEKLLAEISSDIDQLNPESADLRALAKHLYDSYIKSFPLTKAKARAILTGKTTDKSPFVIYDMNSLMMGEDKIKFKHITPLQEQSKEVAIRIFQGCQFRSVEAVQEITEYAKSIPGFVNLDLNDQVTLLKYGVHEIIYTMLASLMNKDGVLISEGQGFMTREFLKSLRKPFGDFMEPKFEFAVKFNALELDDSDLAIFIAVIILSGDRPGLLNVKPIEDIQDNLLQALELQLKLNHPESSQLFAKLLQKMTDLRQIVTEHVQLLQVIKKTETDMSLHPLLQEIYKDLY

[2] = target: T2, Peroxisome proliferator-activated receptor alpha (Homo sapiens, UniProt Q07869); assay: as §1
T2 sequence (Q07869 whole entry): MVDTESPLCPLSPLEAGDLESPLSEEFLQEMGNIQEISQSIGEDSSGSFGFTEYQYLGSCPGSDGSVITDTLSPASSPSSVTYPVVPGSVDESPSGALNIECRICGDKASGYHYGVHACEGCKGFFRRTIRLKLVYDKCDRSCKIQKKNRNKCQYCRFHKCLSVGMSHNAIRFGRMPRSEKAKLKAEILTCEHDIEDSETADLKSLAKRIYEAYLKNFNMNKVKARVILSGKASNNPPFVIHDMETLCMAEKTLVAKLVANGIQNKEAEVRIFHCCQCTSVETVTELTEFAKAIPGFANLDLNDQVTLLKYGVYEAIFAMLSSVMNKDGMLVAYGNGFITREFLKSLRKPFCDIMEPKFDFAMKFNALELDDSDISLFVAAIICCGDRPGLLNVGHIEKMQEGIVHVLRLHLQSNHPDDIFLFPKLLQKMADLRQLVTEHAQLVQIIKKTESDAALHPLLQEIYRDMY

Compound	EC50 [1] [nM]	EC50 [2] [nM]
O=C(Cc1ccccn1)OCc1ccc(CC(SCCc2ccc(F)cc2)C(=O)O)cc1 (stereo unspecified)	2100	1500
CS(=O)(=O)Oc1ccc(C(=O)OCc2ccc(CC(SCCc3ccc(F)cc3)C(=O)O)cc2)cc1 (stereo unspecified)	1800	240
CS(=O)(=O)Oc1ccc(CC(=O)OCc2ccc(CC(SCCc3ccc(F)cc3)C(=O)O)cc2)cc1 (stereo unspecified)	1700	240
